Tests used:
[1] = biological target: Alpha-1D adrenergic receptor (Homo sapiens) (UniProt P25100); conditions: Compound concentration 10.0 uM
[2] = biological target: ALK tyrosine kinase receptor (Homo sapiens) (UniProt Q9UM73); conditions: Compound concentration 1.0 uM
[3] = biological target: T1, cGMP-dependent protein kinase 2 (Homo sapiens) (UniProt Q13237); conditions: Compound concentration 1.0 uM
T1 sequence (whole entry): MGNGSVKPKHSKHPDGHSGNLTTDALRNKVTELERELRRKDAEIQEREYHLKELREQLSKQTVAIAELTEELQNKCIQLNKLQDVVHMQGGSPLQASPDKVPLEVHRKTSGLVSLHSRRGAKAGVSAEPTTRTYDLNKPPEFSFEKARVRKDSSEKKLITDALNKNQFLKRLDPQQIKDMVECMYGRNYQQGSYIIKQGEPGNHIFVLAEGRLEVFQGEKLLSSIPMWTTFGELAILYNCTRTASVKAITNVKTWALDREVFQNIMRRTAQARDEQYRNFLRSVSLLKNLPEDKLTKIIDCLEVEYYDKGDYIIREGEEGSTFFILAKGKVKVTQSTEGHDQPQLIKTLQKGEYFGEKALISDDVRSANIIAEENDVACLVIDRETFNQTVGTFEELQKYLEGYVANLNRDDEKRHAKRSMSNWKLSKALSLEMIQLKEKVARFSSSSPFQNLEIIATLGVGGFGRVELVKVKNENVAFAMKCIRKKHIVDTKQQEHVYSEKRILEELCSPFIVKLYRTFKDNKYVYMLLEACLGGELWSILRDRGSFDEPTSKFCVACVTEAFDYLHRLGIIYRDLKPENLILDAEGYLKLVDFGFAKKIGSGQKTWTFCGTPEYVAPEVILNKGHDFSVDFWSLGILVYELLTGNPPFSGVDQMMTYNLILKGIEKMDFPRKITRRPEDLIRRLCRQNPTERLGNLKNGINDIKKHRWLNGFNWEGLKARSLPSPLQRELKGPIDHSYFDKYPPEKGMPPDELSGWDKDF

[4] = biological target: Cyclin-dependent kinase 14/Cyclin-Y (Homo sapiens) (UniProt O94921+Q8ND76); conditions: Compound concentration 1.0 uM
[5] = biological target: Eukaryotic elongation factor 2 kinase (Homo sapiens) (UniProt O00418); conditions: Compound concentration 1.0 uM
[6] = biological target: Transcription initiation factor TFIID subunit 1-like (Homo sapiens) (UniProt Q8IZX4); conditions: Compound concentration 1.0 uM
[7] = biological target: Dual specificity protein kinase CLK4 (Homo sapiens) (UniProt Q9HAZ1); conditions: Compound concentration 1.0 uM
[8] = biological target: Tyrosine-protein kinase Fes/Fps (Homo sapiens) (UniProt P07332); conditions: Compound concentration 1.0 uM
[9] = biological target: Serine/threonine-protein kinase 32B (Homo sapiens) (UniProt Q9NY57); conditions: Compound concentration 1.0 uM
[10] = biological target: Tyrosine-protein kinase Blk (Homo sapiens) (UniProt P51451); conditions: Compound concentration 1.0 uM
[11] = biological target: Tyrosine-protein kinase JAK2 (Homo sapiens) (UniProt O60674); conditions: Compound concentration 1.0 uM
[12] = biological target: T2, Serine/threonine-protein kinase 4 (Homo sapiens) (UniProt Q13043); conditions: Compound concentration 1.0 uM
T2 sequence (whole entry): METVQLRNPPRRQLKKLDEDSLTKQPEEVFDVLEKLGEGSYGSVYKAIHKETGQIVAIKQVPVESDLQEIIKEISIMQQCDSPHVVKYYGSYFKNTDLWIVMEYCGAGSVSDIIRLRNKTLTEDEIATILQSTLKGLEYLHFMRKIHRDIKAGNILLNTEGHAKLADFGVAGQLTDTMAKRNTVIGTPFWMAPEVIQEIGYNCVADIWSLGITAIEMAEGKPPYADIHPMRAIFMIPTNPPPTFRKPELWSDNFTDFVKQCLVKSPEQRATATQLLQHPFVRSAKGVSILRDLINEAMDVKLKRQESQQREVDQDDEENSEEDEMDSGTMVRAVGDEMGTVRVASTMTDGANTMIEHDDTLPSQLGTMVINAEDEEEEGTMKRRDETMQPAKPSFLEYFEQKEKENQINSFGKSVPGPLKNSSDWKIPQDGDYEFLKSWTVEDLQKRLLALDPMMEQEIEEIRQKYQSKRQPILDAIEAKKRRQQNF

[13] = biological target: Ribosomal protein S6 kinase alpha-1 (Homo sapiens) (UniProt Q15418); conditions: Compound concentration 1.0 uM
[14] = biological target: Calcium/calmodulin-dependent protein kinase type 1G (Homo sapiens) (UniProt Q96NX5); conditions: Compound concentration 1.0 uM
[15] = biological target: Activated CDC42 kinase 1 (Homo sapiens) (UniProt Q07912); conditions: Compound concentration 1.0 uM
[16] = biological target: Vascular endothelial growth factor receptor 3 (Homo sapiens) (UniProt P35916); conditions: Compound concentration 1.0 uM
[17] = biological target: Serine-protein kinase ATM (Homo sapiens) (UniProt Q13315); conditions: Compound concentration 1.0 uM
[18] = biological target: T3, Inhibitor of nuclear factor kappa-B kinase subunit alpha (Homo sapiens) (UniProt O15111); conditions: Compound concentration 1.0 uM
T3 sequence (whole entry): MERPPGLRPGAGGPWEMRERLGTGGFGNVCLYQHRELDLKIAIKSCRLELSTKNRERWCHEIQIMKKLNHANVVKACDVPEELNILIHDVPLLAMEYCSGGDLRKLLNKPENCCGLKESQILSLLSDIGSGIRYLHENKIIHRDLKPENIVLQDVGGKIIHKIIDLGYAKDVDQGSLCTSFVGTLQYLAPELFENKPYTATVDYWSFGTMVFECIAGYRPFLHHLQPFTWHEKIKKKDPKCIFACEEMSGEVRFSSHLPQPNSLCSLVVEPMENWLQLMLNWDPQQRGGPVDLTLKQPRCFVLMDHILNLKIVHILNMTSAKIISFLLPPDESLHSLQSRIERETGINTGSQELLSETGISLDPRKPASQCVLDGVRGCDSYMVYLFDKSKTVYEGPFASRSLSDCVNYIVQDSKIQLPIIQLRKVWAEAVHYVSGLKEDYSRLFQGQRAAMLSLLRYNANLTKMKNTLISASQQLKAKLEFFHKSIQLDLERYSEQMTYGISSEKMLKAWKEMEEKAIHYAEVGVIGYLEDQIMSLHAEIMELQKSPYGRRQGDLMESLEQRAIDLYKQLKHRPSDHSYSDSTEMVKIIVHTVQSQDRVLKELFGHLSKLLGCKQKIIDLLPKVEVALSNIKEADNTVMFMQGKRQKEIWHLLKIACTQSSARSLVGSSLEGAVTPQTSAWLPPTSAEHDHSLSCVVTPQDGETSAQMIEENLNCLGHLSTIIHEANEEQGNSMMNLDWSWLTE

ALK tyrosine kinase receptor (Homo sapiens), sequence (Q9UM73 19-1620 limits assumed): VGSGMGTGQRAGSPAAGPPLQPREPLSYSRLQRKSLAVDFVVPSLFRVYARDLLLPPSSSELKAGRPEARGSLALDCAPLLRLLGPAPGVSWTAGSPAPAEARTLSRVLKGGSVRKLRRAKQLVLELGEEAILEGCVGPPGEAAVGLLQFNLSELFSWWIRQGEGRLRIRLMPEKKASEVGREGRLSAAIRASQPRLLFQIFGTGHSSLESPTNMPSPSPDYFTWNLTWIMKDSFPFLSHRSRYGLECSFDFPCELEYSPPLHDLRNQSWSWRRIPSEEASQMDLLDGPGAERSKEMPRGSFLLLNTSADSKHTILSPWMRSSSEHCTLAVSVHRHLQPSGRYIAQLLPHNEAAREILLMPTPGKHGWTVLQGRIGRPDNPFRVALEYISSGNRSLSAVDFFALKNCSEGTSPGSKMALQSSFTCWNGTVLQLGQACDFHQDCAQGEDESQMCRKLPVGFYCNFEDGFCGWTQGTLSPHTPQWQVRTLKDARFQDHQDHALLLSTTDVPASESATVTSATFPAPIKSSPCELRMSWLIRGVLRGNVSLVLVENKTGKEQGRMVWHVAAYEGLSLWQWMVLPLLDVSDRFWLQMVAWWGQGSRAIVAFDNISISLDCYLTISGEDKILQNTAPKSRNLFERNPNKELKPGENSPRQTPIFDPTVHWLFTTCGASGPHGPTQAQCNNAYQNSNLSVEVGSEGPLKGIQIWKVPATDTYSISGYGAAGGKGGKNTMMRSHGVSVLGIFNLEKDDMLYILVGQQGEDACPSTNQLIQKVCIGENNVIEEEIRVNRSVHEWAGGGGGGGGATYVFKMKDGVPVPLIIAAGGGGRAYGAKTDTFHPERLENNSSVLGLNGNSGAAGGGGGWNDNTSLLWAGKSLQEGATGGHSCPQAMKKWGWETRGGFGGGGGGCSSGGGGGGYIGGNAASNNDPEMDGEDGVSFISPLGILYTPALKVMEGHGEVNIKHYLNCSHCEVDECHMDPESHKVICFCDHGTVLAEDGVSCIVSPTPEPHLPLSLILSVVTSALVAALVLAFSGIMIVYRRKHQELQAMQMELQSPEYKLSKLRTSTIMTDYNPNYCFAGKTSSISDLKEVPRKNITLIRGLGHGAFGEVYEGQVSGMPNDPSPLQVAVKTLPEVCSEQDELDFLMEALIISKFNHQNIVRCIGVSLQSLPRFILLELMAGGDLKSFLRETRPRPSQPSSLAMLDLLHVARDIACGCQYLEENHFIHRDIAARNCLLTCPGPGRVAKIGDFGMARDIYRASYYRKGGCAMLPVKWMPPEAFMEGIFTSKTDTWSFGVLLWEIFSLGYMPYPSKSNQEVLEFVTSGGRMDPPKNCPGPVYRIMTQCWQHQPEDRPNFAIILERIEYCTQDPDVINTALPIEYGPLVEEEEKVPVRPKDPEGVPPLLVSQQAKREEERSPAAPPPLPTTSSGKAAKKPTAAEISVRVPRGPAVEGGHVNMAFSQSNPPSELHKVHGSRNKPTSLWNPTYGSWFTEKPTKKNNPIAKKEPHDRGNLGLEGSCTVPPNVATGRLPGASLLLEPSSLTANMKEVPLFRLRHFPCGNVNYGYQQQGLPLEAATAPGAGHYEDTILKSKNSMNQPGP
Tyrosine-protein kinase JAK2 (Homo sapiens), sequence (O60674 whole entry): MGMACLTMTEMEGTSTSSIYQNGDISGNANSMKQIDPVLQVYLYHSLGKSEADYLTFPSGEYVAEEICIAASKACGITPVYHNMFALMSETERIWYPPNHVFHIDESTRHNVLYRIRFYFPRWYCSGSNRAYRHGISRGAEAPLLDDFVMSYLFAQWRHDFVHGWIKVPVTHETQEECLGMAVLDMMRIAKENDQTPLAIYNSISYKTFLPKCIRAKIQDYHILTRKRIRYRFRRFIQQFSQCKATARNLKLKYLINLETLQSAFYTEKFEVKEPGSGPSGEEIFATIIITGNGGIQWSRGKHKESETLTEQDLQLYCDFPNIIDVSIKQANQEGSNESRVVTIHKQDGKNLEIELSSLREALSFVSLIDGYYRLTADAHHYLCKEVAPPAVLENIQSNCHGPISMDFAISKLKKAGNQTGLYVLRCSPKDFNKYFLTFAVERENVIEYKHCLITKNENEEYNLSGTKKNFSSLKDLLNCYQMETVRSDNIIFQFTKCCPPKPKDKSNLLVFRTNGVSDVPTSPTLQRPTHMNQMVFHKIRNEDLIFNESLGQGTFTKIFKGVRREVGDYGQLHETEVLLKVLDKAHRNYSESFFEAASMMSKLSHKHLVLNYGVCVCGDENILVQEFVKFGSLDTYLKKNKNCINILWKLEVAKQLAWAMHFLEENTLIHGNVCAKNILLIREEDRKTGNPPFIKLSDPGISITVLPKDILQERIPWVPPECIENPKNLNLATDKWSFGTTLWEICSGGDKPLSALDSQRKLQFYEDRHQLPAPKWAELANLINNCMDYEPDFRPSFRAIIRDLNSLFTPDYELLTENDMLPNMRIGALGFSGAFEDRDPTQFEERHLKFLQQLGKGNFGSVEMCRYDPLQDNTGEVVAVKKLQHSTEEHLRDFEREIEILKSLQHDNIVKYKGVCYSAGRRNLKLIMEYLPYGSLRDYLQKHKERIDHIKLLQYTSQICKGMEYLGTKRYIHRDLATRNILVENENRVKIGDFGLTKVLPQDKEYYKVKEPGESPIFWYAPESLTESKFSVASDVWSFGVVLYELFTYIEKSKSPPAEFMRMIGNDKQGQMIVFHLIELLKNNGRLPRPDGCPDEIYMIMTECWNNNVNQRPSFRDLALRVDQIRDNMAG
Serine/threonine-protein kinase 32B (Homo sapiens), sequence (Q9NY57 whole entry): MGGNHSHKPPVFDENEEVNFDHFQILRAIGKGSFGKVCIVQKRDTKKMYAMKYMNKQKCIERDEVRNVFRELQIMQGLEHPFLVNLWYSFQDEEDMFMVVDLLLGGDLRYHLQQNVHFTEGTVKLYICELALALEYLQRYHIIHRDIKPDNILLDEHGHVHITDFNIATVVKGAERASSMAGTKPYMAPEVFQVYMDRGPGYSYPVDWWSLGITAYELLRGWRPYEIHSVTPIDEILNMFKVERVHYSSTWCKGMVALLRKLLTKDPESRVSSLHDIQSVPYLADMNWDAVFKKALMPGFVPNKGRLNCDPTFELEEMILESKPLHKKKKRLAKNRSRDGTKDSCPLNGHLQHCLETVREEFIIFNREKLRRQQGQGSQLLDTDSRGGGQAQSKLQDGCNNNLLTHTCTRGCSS
Tyrosine-protein kinase Fes/Fps (Homo sapiens), sequence (P07332 whole entry): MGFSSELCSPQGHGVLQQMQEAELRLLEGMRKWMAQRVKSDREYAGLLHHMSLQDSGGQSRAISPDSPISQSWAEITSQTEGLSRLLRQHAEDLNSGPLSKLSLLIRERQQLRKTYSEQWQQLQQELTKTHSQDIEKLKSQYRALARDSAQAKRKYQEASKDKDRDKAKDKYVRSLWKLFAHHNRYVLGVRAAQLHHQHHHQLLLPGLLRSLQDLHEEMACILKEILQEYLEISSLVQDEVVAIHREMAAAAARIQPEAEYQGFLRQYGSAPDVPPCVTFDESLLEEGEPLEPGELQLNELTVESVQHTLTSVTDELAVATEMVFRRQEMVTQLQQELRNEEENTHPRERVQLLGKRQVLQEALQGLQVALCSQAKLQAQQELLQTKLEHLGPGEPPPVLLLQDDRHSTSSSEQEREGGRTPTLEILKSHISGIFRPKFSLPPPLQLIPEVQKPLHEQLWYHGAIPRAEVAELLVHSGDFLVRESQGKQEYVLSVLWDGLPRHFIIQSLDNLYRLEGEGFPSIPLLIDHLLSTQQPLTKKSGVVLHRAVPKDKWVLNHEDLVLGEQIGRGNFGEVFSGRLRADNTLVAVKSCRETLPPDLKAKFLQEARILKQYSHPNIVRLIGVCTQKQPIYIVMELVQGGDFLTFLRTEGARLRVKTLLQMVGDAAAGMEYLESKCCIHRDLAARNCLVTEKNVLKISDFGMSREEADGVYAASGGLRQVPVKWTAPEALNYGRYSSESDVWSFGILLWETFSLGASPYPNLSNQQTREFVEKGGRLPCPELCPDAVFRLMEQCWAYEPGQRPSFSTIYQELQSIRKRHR
Dual specificity protein kinase CLK4 (Homo sapiens), sequence (Q9HAZ1 whole entry, looked up): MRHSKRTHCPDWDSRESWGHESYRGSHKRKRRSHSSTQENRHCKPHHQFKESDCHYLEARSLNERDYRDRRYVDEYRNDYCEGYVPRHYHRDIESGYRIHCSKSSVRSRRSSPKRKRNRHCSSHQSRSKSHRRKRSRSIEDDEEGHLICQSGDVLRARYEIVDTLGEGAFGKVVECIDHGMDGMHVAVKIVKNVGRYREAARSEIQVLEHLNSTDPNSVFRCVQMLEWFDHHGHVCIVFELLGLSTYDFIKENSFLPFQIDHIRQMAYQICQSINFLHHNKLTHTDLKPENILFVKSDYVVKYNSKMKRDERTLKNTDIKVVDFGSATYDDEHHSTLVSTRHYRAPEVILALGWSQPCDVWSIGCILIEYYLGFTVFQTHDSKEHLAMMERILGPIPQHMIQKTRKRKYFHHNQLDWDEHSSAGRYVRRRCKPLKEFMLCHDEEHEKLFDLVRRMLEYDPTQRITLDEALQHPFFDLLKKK
Alpha-1D adrenergic receptor (Homo sapiens), sequence (P25100 whole entry): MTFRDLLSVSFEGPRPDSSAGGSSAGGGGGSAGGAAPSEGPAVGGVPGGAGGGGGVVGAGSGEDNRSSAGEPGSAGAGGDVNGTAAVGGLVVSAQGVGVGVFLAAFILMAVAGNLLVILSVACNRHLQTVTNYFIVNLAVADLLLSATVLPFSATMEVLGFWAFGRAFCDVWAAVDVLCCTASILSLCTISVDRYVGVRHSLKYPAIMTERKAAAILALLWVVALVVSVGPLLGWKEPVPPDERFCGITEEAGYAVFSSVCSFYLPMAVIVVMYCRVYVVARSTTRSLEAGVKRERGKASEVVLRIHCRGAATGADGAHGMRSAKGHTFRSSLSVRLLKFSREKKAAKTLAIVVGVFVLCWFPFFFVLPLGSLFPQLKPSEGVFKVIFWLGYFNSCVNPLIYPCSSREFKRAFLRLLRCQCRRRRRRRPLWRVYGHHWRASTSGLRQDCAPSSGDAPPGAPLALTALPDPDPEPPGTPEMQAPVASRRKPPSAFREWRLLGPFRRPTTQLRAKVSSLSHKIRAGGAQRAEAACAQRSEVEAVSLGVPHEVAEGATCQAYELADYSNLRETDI

Cc1nc(C2CCN(C(=O)c3ccc(OC(F)(F)F)cc3N)CC2)c2ncc(N3CCN(C)CC3)cc2n1 [BAY-693]
inactive: inhibition [1] 5.29%

CN1CCN(c2cnc3c(C4CCN(C(=O)c5ccc(OC(F)(F)F)cc5N)CC4)ncnc3c2)CC1 [BAY-885]
inactive: % residual kinase activity [2] 121% | % residual kinase activity [3] 127% | % residual kinase activity [4] 117% | % residual kinase activity [5] 113% | % residual kinase activity [6] 120% | % residual kinase activity [7] 118% | % residual kinase activity [8] 108% | % residual kinase activity [9] 98% | % residual kinase activity [10] 88% | % residual kinase activity [11] 100% | % residual kinase activity [12] 117% | % residual kinase activity [13] 121% | % residual kinase activity [14] 103% | % residual kinase activity [15] 101% | % residual kinase activity [16] 98% | % residual kinase activity [17] 107% | % residual kinase activity [18] 99%

Source: ChEMBL document CHEMBL4507268 (2021)
